Experimental data from ChEMBL document CHEMBL2439962, “Fighting Obesity and Metabolic Disorders with MGAT-2 Inhibitors” (ACS Med Chem Lett, 2013).

Key:
[1] = target: T1, 2-acylglycerol O-acyltransferase 2 (Homo sapiens, UniProt Q3SYC2); test: Inhibition of human MGAT2 by LC/MS assay
[2] = target: T1, 2-acylglycerol O-acyltransferase 2; test: Inhibition of human MGAT2 by SPA assay

T1 sequence (Q3SYC2 whole entry): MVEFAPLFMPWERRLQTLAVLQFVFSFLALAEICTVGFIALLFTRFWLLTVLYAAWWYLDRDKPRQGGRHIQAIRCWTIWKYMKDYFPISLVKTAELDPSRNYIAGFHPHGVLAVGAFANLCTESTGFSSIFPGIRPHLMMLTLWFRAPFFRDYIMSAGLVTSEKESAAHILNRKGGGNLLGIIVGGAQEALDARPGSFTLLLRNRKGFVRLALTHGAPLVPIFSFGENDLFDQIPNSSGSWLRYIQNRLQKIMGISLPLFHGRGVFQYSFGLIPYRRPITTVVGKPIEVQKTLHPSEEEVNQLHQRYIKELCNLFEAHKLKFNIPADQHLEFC

Cc1ccc(C2=C(C(=O)Nc3ccno3)C(=O)N[C@@](c3ccc(OCCCC(F)(F)F)cc3)(C(F)(F)F)C2)cc1
IC50 [1]: 2 nM | IC50 [2]: 8 nM

Cc1ccc(C2=C(C(=O)Nc3ccc(-c4nnn[nH]4)cc3)C(=O)N[C@@](c3ccc(OCCCC(F)(F)F)cc3)(C(F)(F)F)C2)cc1
IC50 [1]: 7 nM | IC50 [2]: 9 nM
